{"source": "patent US4603016A", "about": "“Cryogenic brine separation of water and isocyanates” (E. I. Du Pont de Nemours and Company, priority 1985, dated 1986)", "assay": "storage stability of isolated MIC preparations (GC determination of MIC content immediately following collection and after storage for two weeks)", "type": "physicochemical", "conditions": "for % MIC After Storage / % MIC As Isolated: GC; for % MIC After Storage: after storage for two weeks; for % MIC As Isolated: immediately following collection", "protocol": "This example illustrates the stability of MIC preparations isolated by the process of the present invention. The procedure described in Example 1 was substantially repeated at MMF liquid feed rates of 2 mL/min. As described in Example 3, samples of the product of the brine condenser were collected for one hour periods, weighed, and yields estimated. Each sample was then analyzed by GC to determine MIC content immediately following collection, and again after storage for two weeks."}
{"smiles": "CN=C=O", "note": "[MIC, methyl isocyanate]", "values": [{"measurement": "% MIC After Storage", "setting": "1st hr sample", "result": 92.3, "unit": "%"}, {"measurement": "% MIC As Isolated", "setting": "1st hr sample", "result": "> 98", "unit": "%"}, {"measurement": "% MIC After Storage", "setting": "2nd hr sample", "result": 92.3, "unit": "%"}, {"measurement": "% MIC As Isolated", "setting": "2nd hr sample", "result": "> 98", "unit": "%"}, {"measurement": "% MIC After Storage", "setting": "3rd hr sample", "result": 93.1, "unit": "%"}, {"measurement": "% MIC As Isolated", "setting": "3rd hr sample", "result": "> 98", "unit": "%"}, {"measurement": "% MIC After Storage", "setting": "4th hr sample", "result": 95.0, "unit": "%"}, {"measurement": "% MIC As Isolated", "setting": "4th hr sample", "result": "> 98", "unit": "%"}, {"measurement": "% MIC After Storage", "setting": "5th hr sample", "result": 95.4, "unit": "%"}, {"measurement": "% MIC As Isolated", "setting": "5th hr sample", "result": "> 98", "unit": "%"}, {"measurement": "degradation of product MIC during storage", "setting": "storage for two weeks, all samples", "result": "minimal degradation"}]}
